Source: patent publication US11998013B1, “1-(morpholin-4-yl)-3-(naphthalen-2-yloxy)propan-2-ol as an eco-friendly insecticidal agent against spodoptera littoralis (boisd.)” (priority 2023, dated 2024)
In brackets after ≈: the same amount, converted by molar mass.

Tested on: Spodoptera littoralis
Assay: Insecticidal bioassay screening (castor leaf dip, larval mortality)
Type: in vivo
Conditions: for Toxic ratio: 72 h, fenoxycarb's LC50 / compound's LC50 × 100
Method: Five concentrations (200, 100, 50, 25, 12.5 ppm) were designed for this synthetic compound and the reference fenoxycarb compound as the dynamic ingredients based on ppm via diluting the commercial formulation.
In this experiment, castor leaves are immersed in each of the previously prepared concentrations of the components for 10 seconds and then left to dry for 60 minutes. Larvae of the second and fourth instars of each checked strain are prepared with treated leaves in gauze-covered glass containers for 72 hrs. An untreated control is made in which leaves are dipped in triton x-100 and distilled water only. Then the preserved leaves were removed & fresh, untreated leaves were provided for 72 hours. Three replicates (10 larvae each) were checked for each concentration. Daily inspection was carried out for all treatments and mortality percentages were recorded 3 days (72 hours) after treatment. The average mortality percentage was corrected employing Abbott's formula. The corrected mortality rate for each of the previously synthesized compounds is statistically calculated according to Finney (1970). Through this rate, the corresponding concentration test lines (LDP lines) are assessed. Fifty and ninety percent mortality are determined, and the regression values for the checked products were previously evaluated.

Compound `OC(COc1ccc2ccccc2c1)CN1CCOCC1` (stereo not drawn) [Compound 2, 1-(morpholin-4-yl)-3-(naphthalen-2-yloxy)propan-2-ol] has a Toxic ratio (2nd instar larvae) of 15.5, a Toxic ratio (4th instar larvae) of 62.4 and an LC50 (Spodoptera littoralis, foliar) of 17.6 µg/mL (≈ 61.1 µM). For the same compound, the “activity against Spodoptera littoralis (in words)” value (compared with the reference insecticide fenoxycarb) was “active against Spodoptera littoralis”.

With `CCOC(=O)NCCOc1ccc(Oc2ccccc2)cc1` [Fenoxycarb, reference compound] the LC50 (2nd instar larvae of S. littoralis, after 72 h of treatment, treated castor leaves) was 2.73 ppm, the Toxic ratio (2nd instar larvae) was 100 and the LC50 (4th instar larvae of S. littoralis, after 72 h of treatment, treated castor leaves) was 43.231 ppm. It also gave a Toxic ratio (4th instar larvae) of 1 and an LC50 (Spodoptera littoralis, foliar) of 2.73 µg/mL (≈ 9.06 µM).
